# Results taken from US11963975B2, “Therapeutic targets for facioscapulohumeral muscular dystrophy” (University of Massachusetts, priority 2016, dated 2024).
# “And” between values parts separate entries of the source, which are not always exact repeats. Identical values can stand only once.
# Tests used:
# [1] = tested on: primary myoblasts isolated from FSHD1-affected and FSHD-asymptomatic patients; test: small molecule treatment of primary myoblasts, DUX4 expression; type: cell-based, human; conditions: alone, or in combination; FIG. 15
# Source text: Trichostatin A (TSA) is a histone deacetylase inhibitor, 5-aza-2′-deoxycytidine (5′ADC) is a DNA methylation inhibitor and chaetocin (CH) is a histone methyltransferase inhibitor.
# [2] = tested on: healthy human skeletal muscle myoblasts (HSMM); test: JQ1 treatment of healthy myoblasts, myogenic gene expression; type: cell-based; conditions: FIG. 17
# Source text: (§1) DUX4 expression is induced during myogenic differentiation, and blocking or slowing down this process, as the case with JQ1, give the appearance of inhibiting DUX4 expression, when in fact it is merely altering the kinetics of myoginc differentiation. Importantly, these genes are misregulated by JQ1 in both FSHD and healthy human skeletal muscle myoblasts (HSMM) (FIG. 17). Therefore, JQ1 is an example of a non-specific small molecule and not appropriate for use as an FSHD therapeutic.
# [3] = tested on: primary FSHD muscle cells (09Abic); test: JQ1 treatment time course, gene expression; type: cell-based, human
# Source text: as §1
# [4] = tested on: FSHD myocytes (05Abic, 18Abic, and 17Abic); test: shRNA knockdown across FSHD cohorts, DUX4-fl by qRT-PCR; type: cell-based, human; conditions: FIG. 11F
# Source text: FIGS. 11A-11F show shRNA knockdown of epigenetic regulators reduces expression of DUX4-fl in FSHD myocytes. Differentiated FSHD myocytes were infected in two serial rounds with shRNAs to ASH1L (FIG. 11A), BAZ1A (FIG. 11B), BRD2 (FIG. 11C), KDM4C (FIG. 11D), SMARCA5 (FIG. 11E), or a scrambled control. Four days later, cells were harvested for analysis of the full-length DUX4 isoform (DUX4-fl), Myogenin (Myog), MyoD, Myosin heavy chain 1 (MyHC), FRG1, Utrophin (Utr), and 18S gene expression by qRT-PCR. […] In all panels, relative mRNA expression for mock or control-infected cells is set to 1. Data are plotted as the mean+SD value of technical replicates.
# (§2) Myogenic cultures derived from biceps muscles of unrelated FSHD1 patients (05Abic, 17Abic, and 18Abic) were grown in Ham's F-10 medium supplemented with 20% FBS (Hyclone), 0.5% chick embryo extract, 1% antibiotics & antimycotics, and 1.2 mM CaCl2. 293T packaging cells were grown in DMEM+10% FBS+0.1% […]. For shRNA knockdown experiments, 293T cells were transfected with lentiviral packaging plasmid (pCMV-dR8.91), envelope plasmid (VSV-G), and SIGMA MISSION shRNA expression plasmids. Lentiviral supernatants were harvested, aliquoted, and frozen at −80° C. FSHD1 skeletal myoblasts were seeded in collagen-coated 6-well plates (for gene expression analysis) or 10-cm plates (for ChIP) and grown to confluence, then allowed to self-differentiate in growth medium for ˜48 h. Cells were subjected to two rounds of infection. Briefly, lentiviral supernatants+8 μg/ml polybrene were added to cultures and the plates were incubated for 15 min at 37° C., then wrapped well with parafilm before centrifuging for 30 min at 1100 g (32° C.). Following centrifugation, the viral supernatants were replaced with growth medium. Cells were maintained in growth medium and harvested 4 d after the last round of infection. For dCas9-KRAB infections, 293T cells were transfected with lentiviral packaging plasmid (pCMV-dR8.91), envelope plasmid (VSV-G), and either dCas9-KRAB expression plasmid (#50919) or sgRNA expression plasmid using the TransIT-LT1 transfection reagent. Lentiviral supernatants were harvested at […] from 72-108 h post-transfection. FSHD1 skeletal myoblasts were seeded in collagen-coated 6-well plates and grown to ˜80% confluency, then subjected to four serial infections over two days. Cells were allowed to recover for ˜8 h in growth medium prior to the next round of infection. Following the last infection, these self-differentiated cultures were maintained in growth medium for 72 h prior to harvesting.
# Total RNAs were extracted using TRIzol (Invitrogen) and purified using the RNeasy Mini kit (Qiagen) after on-column DNase I digestion. […]
# [5] = tested on: skeletal myocytes from an FSHD1 patient (05Abic); test: shRNA knockdown screen in terminally differentiated FSHD myocytes, gene expression by qRT-PCR; type: cell-based, human; conditions: harvested 4 days after second infection, Mock = 1
# Experimental: A screen to identify genes involved in DUX4 expression (e.g., when the expression of these genes is reduced in FSHD muscle cells, DUX4 expression also decreases) was performed. Briefly, primary differentiated myocytes derived from subjects having FSHD were treated with shRNA targeting candidate genes and the expression level of pathogenic DUX4-fl mRNA was quantified. The expression levels of other myogenic regulators (e.g., Myogenin, MyoD, MyHD) and other targets (e.g., FRG1, UTRN, and 18S) were also quantified to assess indirect effects of DUX4 knockdown. A sample screening protocol is shown below:
# • 1. Expand low passage primary FSHD myoblasts. • 2. Plate into 6-well plates. • 3. Allow cells to reach confluence and differentiate (approximately 48 hours). • 4. Infect cells with lentiviral shRNA construct and incubate for 24 hours. • 5. Re-infect cells with lentiviral shRNA construct. • 6. Harvest cells 4 days after second infection. • 7. Extract RNA from cells and assay for expression level of DUX4-fl and other genes of interest.
# as §2
# Total RNAs were extracted using TRIzol (Invitrogen) and purified using the RNeasy Mini kit (Qiagen) after on-column DNase I digestion. Total RNA (2 μg) was used for cDNA synthesis using Superscript III Reverse Transcriptase (Invitrogen), and 200 ng of cDNA were used for qPCR analysis.
# The D4Z4 macrosatellite array that encodes DUX4 is normally under strong epigenetic repression in adult somatic cells. […] Thirty-six candidate activators of DUX4 fl were investigated as potential drug targets (Table 3). These candidates include transcriptional regulators, chromatin remodelers, and histone modifying enzymes. For the initial screen, skeletal myocytes from an FSHD1 patient (05Abic) which express consistent and relatively high levels of DUX4 fl when terminally differentiated were used. Using lentivirus-encoded shRNAs, each candidate was knocked down in terminally differentiated cultures, then cells were harvested four days later and assessed for expression of DUX4 fl and other genes.
Molecule,DUX4 expression (in words) [1],"myogenic genes (Myog, myoD, MyHC) (in words) [2]",DUX4 expression (in words) ([3]; 09Abic),expression of downstream genes TRIM43 and ZSCAN4 (in words) ([3]; 09Abic),"expression of myogenic regulatory genes myogenin (Myog), myoD, myosin heavy chain (MyHC), and myostatin (Myost) (in words) ([3]; time course of treatment, FIG. 16)",DUX4-fl expression (in words) [4],18S relative gene expression [5],D4-fl relative gene expression [5],FRG1 relative gene expression [5],MyHC relative gene expression [5],MyoD relative gene expression [5],Myog relative gene expression [5],Utr relative gene expression [5]
Nc1ncn([C@H]2C[C@H](O)[C@@H](CO)O2)c(=O)n1 [5-aza-2′-deoxycytidine],affect DUX4 expression,–,–,–,–,–,–,–,–,–,–,–,–
Cc1sc2c(c1C)C(c1ccc(Cl)cc1)=N[C@@H](CC(=O)OC(C)(C)C)c1nnc(C)n1-2 [JQ1],–,misregulated,appears to inhibit,appears to inhibit,inhibiting the expression,–,–,–,–,–,–,–,–
CC(/C=C/C(=O)NO)=C\[C@@H](C)C(=O)c1ccc(N(C)C)cc1 [Trichostatin A],affect DUX4 expression,–,–,–,–,–,–,–,–,–,–,–,–
PJ1: shRNA targeting ASH1L; SEQ ID NO: 4 (guide CCGGCGACATAAACTTGACATCTTTCTCGAGAAAGATGTCAAGTTTATGTCGTTTTT),–,–,–,–,–,reduce DUX4-fl expression,1.372,0.3399,1.051,1.066,0.7238,1.795,0.6994
PJ2: shRNA targeting ASH1L; SEQ ID NO: 5 (guide CCGGCCTGCCAAATACCATAAGAAACTCGAGTTTCTTATGGTATTTGGCAGGTTTTT),–,–,–,–,–,–,1.311,0.1371,1.172,0.7221,0.8503,0.8845,0.815
PJ3: shRNA targeting ASH1L; SEQ ID NO: 6 (guide CCGGCGTACTTTGTTTATCCCAGAACTCGAGTTCTGGGATAAACAAAGTACGTTTTT),–,–,–,–,–,–,1.185,0.2434,1.141,1.341,0.9895,0.7218,1.128
PJ11: shRNA targeting BRD2; SEQ ID NO: 10 (guide CCGGCCCTTTGCTGTGACACTTCTTCTCGAGAAGAAGTGTCACAGCAAAGGGTTTTT),–,–,–,–,–,reduce DUX4-fl expression,1.112,0.124,1.25,0.7342,0.9277,1.026,0.6067
PJ12: shRNA targeting BRD2; SEQ ID NO: 11 (guide CCGGGCCCTCTTTACGTGATTCAAACTCGAGTTTGAATCACGTAAAGAGGGCTTTTT),–,–,–,–,–,–,1.099,0.1127,1.178,0.7927,0.904,1.088,0.6755
PJ73: shRNA targeting KDM4C; SEQ ID NO: 1 (guide CCGGGCCTCTGACATGCGATTTGAACTCGAGTTCAAATCGCATGTCAGAGGCTTTTT),–,–,–,–,–,–,1.253,0.1101,1.043,0.7968,0.9045,1.338,0.6393
PJ74: shRNA targeting KDM4C; SEQ ID NO: 2 (guide CCGGGCAGAGAGTAATGGTGTGTTACTCGAGTAACACACCATTACTCTCTGCTTTTT),–,–,–,–,–,reduce DUX4-fl expression,1.129,0.08801,1.211,0.7642,0.7621,1.81,0.7121
PJ75: shRNA targeting KDM4C; SEQ ID NO: 3 (CCGGGCCCAAGTCTTGGTATGCTATCTCGAGATAGCATACCAAGACTTGGGCTTTTT),–,–,–,–,–,–,0.9781,0.1812,0.7766,0.9826,1.048,1.318,1.018
PJ152: shRNA targeting BAZ1A; SEQ ID NO: 9 (guide CCGGGCGATGAAGAAGAAGGTCAAACTCGAGTTTGACCTTCTTCTTCATCGCTTTTTG),–,–,–,–,–,–,1.312,0.1892,0.9047,0.8503,0.991,1.318,0.954
PJ195: shRNA targeting SMARCA5; SEQ ID NO: 7 (guide CCGGGTTCTTTAATTTACGGGTCTTCTCGAGAAGACCCGTAAATTAAAGAACTTTTT),–,–,–,–,–,–,0.9905,0.168,0.9865,0.7803,0.8981,0.8003,1.024
PJ196: shRNA targeting SMARCA5; SEQ ID NO: 8 (guide CCGGCCGGGCAAATAGATTCGAGTACTCGAGTACTCGAATCTATTTGCCCGGTTTTT),–,–,–,–,–,reduce DUX4-fl expression,0.9807 and 1.048,0.1085 and 0.1967,0.8974 and 0.9209,0.469 and 0.5926,0.722 and 0.9103,0.9247 and 0.9293,0.8261 and 1.231
